Tests used:
[1] = target: T1, BTK (Bruton tyrosine kinase) (Homo sapiens, UniProt Q06187); experiment: BTK screening assay (33PanQinase Activity Assay, radiometric); type: biochemical; conditions: Inhibition of BTK, radiometric 33PanQinase Activity Assay, 3 μM ATP, 10 concentrations in singlicate, top 10 μM; read-out: 33PanQinase ® Radiometric IC50
T1 construct: GST or His (the text leaves open which); purchased Reaction Biology Europe GmbH Lot 012,11; host or cells: Sf9 insect cells or E. coli (not resolved)
Description: Inhibition of BTK activity was evaluated using a radiometric protein kinase assay (33PanQinase® Activity Assay) to measure the activity of BTK (Bruton tyrosine kinase).
Kinase assays were performed in 96-well ScintiPlates™ from Perkin Elmer (Boston, MA, USA) in a 50 μL reaction volume. The reaction cocktail was pipetted in four steps in the following order: 10 μL of non-radioactive ATP solution (in H2O); 25 μL of assay buffer/[γ-^33P]-ATP mixture; 5 μL of compound test sample in 10% DMSO; 10 μL of enzyme/substrate mixture.
BTK kinase was expressed in Sf9 insect cells or in E. coli as recombinant GST-fusion proteins or His-tagged proteins, either as full-length or enzymatically active fragments from human cDNAs, and purified by either GSH-affinity chromatography or immobilized metal. Purity was examined by SDS-PAGE/Coomassie staining, and identity confirmed by mass spectroscopy.
The reaction cocktails were incubated at 30° C. for 60 minutes. The reaction was stopped with 50 μL of 2% (v/v) H3PO4, plates were aspirated and washed two times with 200 μL 0.9% (w/v) NaCl. Incorporation of ^33Pi (counting of “cpm”) was determined with a microplate scintillation counter (Microbeta, Wallac).
The median value of the counts in wells containing assay buffer without enzyme, and without test compound was defined as “low control.” This value reflects unspecific binding of radioactivity to the plate in the absence of a protein kinase but in the presence of the substrate. The median value of the counts in wells containing assay buffer without test compound was defined as the “high control,” i.e. full activity in the absence of any inhibitor. The difference between high and low control was taken as 100% activity. Residual activity (in %) was calculated using the following formula: Res. Activity (%)=100×[(cpm of compound-low control)/(high control-low control)].
The fitting method used was a least-squares fit.

CXCR4 [2] = target: T2, CXCR4 (Homo sapiens, UniProt P61073); experiment: Intracellular CXCL-12-induced calcium mobilization assay (FLIPR), U87.CXCR4 cells; type: cell-based; parameters: expressed in transfected cells; host or cells: U87 (U87.CXCR4); conditions: CXCL-12 25-50 ng/ml, read-out: IC50 CXCL-12 Ca2+ flux U87.CXCR4+
Description: Intracellular calcium mobilization induced by chemokines or chemokine-derived peptides were evaluated using a calcium responsive fluorescent probe and a FLIPR system. The CXCR-4 transfected U87 cell line (U87.CXCR4) cells were seeded in gelatine-coated black-wall 96-well plates at 20,000 cells per well and incubated for 12 hours. Cells were then loaded with the fluorescent calcium probe Fluo-2 acetoxymethyl at 4 μM final concentration in assay buffer (Hanks' balanced salt solution with 20 mM HEPES buffer and 0.2% bovine serum albumin, pH 7.4) for 45 min at 37° C. The intracellular calcium mobilization induced by the CXCL-12 (25-50 ng/ml) was then measured at 37° C. by monitoring the fluorescence as a function of time in all the wells simultaneously using a fluorometric imaging plate reader (FLIPR Tetra, Molecular Devices).

CXCR4 [3] = target: T2, CXCR4; experiment: Chemokine (CXCL12-AF647) binding inhibition assay, Jurkat cells expressing CXCR4; conditions: CXCL12-AF647 25 ng/ml, read-out: IC50 CXCL-12 binding Jurkat
Description: Jurkat cells expressing CXCR4 were washed once with assay buffer (Hanks' balanced salt solution with 20 mM HEPES buffer and 0.2% bovine serum albumin, pH 7.4) and then incubated for 15 min at room temperature with the test compounds diluted in assay buffer at dose-dependent concentrations. Subsequently, CXCL12-AF647 (25 ng/ml) was added to the compound-incubated cells. The cells were incubated for 30 min at room temperature. Thereafter, the cells were washed twice in assay buffer, fixed in 1% paraformaldehyde in PBS, and analyzed on the FL4 channel of a FACSCalibur flow cytometer equipped with a 635-nm red diode laser (Becton Dickinson, San Jose, CA, USA).
The percentages of inhibition of CXCL12-AF647 binding were calculated according to the formula: [1−((MFI−MFINC)/(MFIPC−MFINC))]×100 where MFI is the mean fluorescence intensity of the cells incubated with CXCL 12-AF647 in the presence of the inhibitor, MFINC is the mean fluorescence intensity measured in the negative control (i.e., autofluorescence of unlabeled cells), and MFIPC is the mean fluorescence intensity of the positive control (i.e., cells exposed to CXCL12-AF647 alone).

T1 sequence (Q06187 whole entry): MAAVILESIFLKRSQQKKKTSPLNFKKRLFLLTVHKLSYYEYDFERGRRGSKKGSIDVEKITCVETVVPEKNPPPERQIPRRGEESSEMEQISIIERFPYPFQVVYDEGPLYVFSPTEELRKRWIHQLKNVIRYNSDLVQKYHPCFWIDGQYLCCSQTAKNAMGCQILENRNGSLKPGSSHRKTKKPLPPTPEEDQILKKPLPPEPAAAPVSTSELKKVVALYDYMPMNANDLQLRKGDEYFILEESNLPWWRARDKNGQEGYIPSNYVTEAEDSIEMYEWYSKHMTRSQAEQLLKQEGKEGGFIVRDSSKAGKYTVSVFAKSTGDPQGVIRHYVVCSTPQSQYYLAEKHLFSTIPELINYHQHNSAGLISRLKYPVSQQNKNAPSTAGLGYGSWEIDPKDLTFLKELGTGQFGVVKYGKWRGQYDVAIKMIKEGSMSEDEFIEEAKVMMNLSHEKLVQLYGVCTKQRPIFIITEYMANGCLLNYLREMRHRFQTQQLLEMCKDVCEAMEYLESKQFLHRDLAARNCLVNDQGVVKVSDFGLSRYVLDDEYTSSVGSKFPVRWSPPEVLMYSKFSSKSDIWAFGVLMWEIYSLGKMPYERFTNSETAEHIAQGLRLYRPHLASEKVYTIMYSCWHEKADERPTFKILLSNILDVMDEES
T2 sequence (P61073 whole entry): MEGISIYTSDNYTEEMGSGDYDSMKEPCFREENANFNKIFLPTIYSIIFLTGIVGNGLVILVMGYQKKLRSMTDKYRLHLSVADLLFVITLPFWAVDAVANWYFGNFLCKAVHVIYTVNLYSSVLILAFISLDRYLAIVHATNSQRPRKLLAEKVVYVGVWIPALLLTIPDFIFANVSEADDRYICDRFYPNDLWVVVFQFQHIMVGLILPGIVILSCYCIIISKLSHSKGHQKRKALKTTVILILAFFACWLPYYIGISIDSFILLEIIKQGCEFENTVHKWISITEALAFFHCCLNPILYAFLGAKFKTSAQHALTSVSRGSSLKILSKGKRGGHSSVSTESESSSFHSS

Row | Compound | IC50 [1] [nM] | IC50 (CXCR4 [2]) [nM] | IC50 (CXCR4 [3]) [nM]
1 | Cc1cc(-c2ncnc3[nH]c(S(=O)(=O)NCCN4[C@@H](c5ncccc5C)CCC[C@H]4c4ncccc4C)cc23)ccc1CNC(=O)c1ccc(C(C)(C)C)cc1 [Compound I-26] | 1000 to 2500 | > 2500 | > 2500
2 | Cc1cc(-c2ncnc3[nH]c(S(=O)(=O)NCCCN4[C@@H](c5ncccc5C)CCC[C@H]4c4ncccc4C)cc23)ccc1CNC(=O)c1ccc(C(C)(C)C)cc1 [Compound I-27] | 100 to 1000 | > 2500 | 100 to 1000
3 | Cc1cc(-c2ncnc3[nH]c(S(=O)(=O)NCCCCN4[C@@H](c5ncccc5C)CCC[C@H]4c4ncccc4C)cc23)ccc1CNC(=O)c1ccc(C(C)(C)C)cc1 [Compound I-28] | 1000 to 2500 | > 2500 | 100 to 1000
4 | Cc1cccnc1[C@H]1CCC[C@@H](c2ncccc2C)N1CCCN1CCN(C(=O)c2ccc(-c3cc4c(-c5cccc(NC(=O)c6ccccc6)c5C)ncnc4[nH]3)cc2)CC1 [Compound I-30] | 100 to 1000 | 1 to 100 | 1 to 100
5 | Cc1cccnc1[C@H]1CCC[C@@H](c2ncccc2C)N1CCCCN1CCN(C(=O)c2ccc(-c3cc4c(-c5cccc(NC(=O)c6ccccc6)c5C)ncnc4[nH]3)cc2)CC1 [Compound I-31] | 100 to 1000 | 1 to 100 | 1 to 100
6 | Cc1cccnc1[C@H]1CCC[C@@H](c2ncccc2C)N1CCN1CCN(C(=O)c2ccc(-c3cc4c(-c5cccc(NC(=O)c6cccc(C(C)C)c6)c5C)ncnc4[nH]3)cc2)CC1 [Compound I-33] | 100 to 1000 | 100 to 1000 | 1 to 100
7 | Cc1cccnc1[C@H]1CCC[C@@H](c2ncccc2C)N1CCN1CCN(C(=O)c2ccc(-c3cc4c(-c5cccc(NC(=O)c6ccc(C(F)(F)F)cc6)c5C)ncnc4[nH]3)cc2)CC1 [Compound I-34] | 100 to 1000 | 100 to 1000 | 1 to 100
8 | Cc1cccnc1[C@H]1CCC[C@@H](c2ncccc2C)N1CCNC1CN(C(=O)c2ccc(-c3cc4c(-c5cccc(NC(=O)c6cccc(C(C)C)c6)c5C)ncnc4[nH]3)cc2)C1 [Compound I-36] | 1000 to 2500 | 100 to 1000 | 1 to 100
9 | Cc1cccnc1[C@H]1CCC[C@@H](c2ncccc2C)N1CCNC1CN(C(=O)c2ccc(-c3cc4c(-c5cccc(NC(=O)c6ccc(C(F)(F)F)cc6)c5C)ncnc4[nH]3)cc2)C1 [Compound I-37] | 100 to 1000 | 1 to 100 | 1 to 100
10 | Cc1cc(-c2ncnc3[nH]c(C(=O)NCCCN4[C@@H](c5ncccc5C)CCC[C@H]4c4ncccc4C)cc23)ccc1CNC(=O)c1cccc(C(C)C)c1 [Compound I-39] | 100 to 1000 | > 2500 | 1 to 100
11 | Cc1cc(-c2ccnc(Nc3cnn(CCN4[C@@H](c5ncccc5C)CCC[C@H]4c4ncccc4C)c3)n2)ccc1CNC(=O)N1CC(OC(F)(F)F)C1 [Compound I-43] | 1 to 100 | 100 to 1000 | 1 to 100
12 | Cc1cc(-c2ncnc3[nH]c(C(=O)NCCCCN4[C@@H](c5ncccc5C)CCC[C@H]4c4ncccc4C)cc23)ccc1CNC(=O)c1ccc(C(C)C)cc1 [Compound I-44] | 1 to 100 | 100 to 1000 | 1 to 100
13 | Cc1cc(-c2ncnc3[nH]c(C(=O)NCCCCN4[C@@H](c5ncccc5C)CCC[C@H]4c4ncccc4C)cc23)ccc1CNC(=O)c1cccc(C(C)C)c1 [Compound I-45] | 1 to 100 | 1000 to 2500 | 1 to 100
14 | Cc1cc(-c2ncnc3[nH]c(C(=O)NCCCCN4[C@@H](c5ncccc5C)CCC[C@H]4c4ncccc4C)cc23)ccc1CNC(=O)c1ccc(C(F)(F)F)cc1 [Compound I-46] | 1 to 100 | 100 to 1000 | 1 to 100
15 | Cc1cccnc1[C@H]1CC(Cn2cc(-c3ccc(Oc4ccccc4)cc3)c3c(N)ncnc32)C[C@@H](c2ncccc2C)N1CCCCN (stereo partly drawn) [Compound I-61] | > 2500 | > 2500 | > 2500
16 | Cc1cccnc1[C@H]1CCC[C@@H](c2ncccc2C)N1CCn1cc(-c2ccc(Oc3ccccc3)cc2)c2c(N)ncnc21 [Compound I-63] | > 2500 | > 2500 | 1000 to 2500
17 | Cc1cccnc1[C@H]1CCC[C@@H](c2ncccc2C)N1CCCn1cc(-c2ccc(Oc3ccccc3)cc2)c2c(N)ncnc21 [Compound I-64] | > 2500 | > 2500 | > 2500
18 | Cc1cc(-c2ccnc(Nc3cnn(CCN4CCCCC4c4ncccc4C)c3)n2)ccc1CNC(=O)N1CC(OC(C)C)C1 (stereo not drawn) [Compound I-66] | 1 to 100 | > 2500 | > 2500

Second part, the molecule after the results:

Row | IC50 [1] [nM] | IC50 (CXCR4 [2]) [nM] | IC50 (CXCR4 [3]) [nM] | Compound
19 | 1 to 100 | > 2500 | 100 to 1000 | Cc1cccnc1[C@H]1CCC[C@@H](c2ncccc2C)N1CCCNC(=O)[C@@H]1CC[C@@H](Nc2ncnc3[nH]cc(C(=O)c4ccc(Oc5ccccc5)cc4Cl)c23)CO1 [Compound I-20]
20 | 1 to 100 | 100 to 1000 | 1 to 100 | Cc1cccnc1[C@H]1CC(COC(=O)[C@@H]2CC[C@@H](Nc3ncnc4[nH]cc(C(=O)c5ccc(Oc6ccccc6)cc5Cl)c34)CO2)C[C@@H](c2ncccc2C)N1CCCCN (stereo partly drawn) [Compound I-21]
21 | 1 to 100 | 100 to 1000 | 1 to 100 | Cc1cccnc1[C@H]1CC(C(=O)OC[C@@H]2CC[C@@H](Nc3ncnc4[nH]cc(C(=O)c5ccc(Oc6ccccc6)cc5Cl)c34)CO2)C[C@@H](c2ncccc2C)N1CCCCN (stereo partly drawn) [Compound I-22]
22 | 1 to 100 | > 2500 | 1 to 100 | Cc1cccnc1[C@H]1CCC[C@@H](c2ncccc2C)N1CCN1CCN(C(=O)c2ccc(-c3cc4c(-c5cccc(NC(=O)c6ccc(C(C)C)cc6)c5C)ncnc4[nH]3)cc2)CC1 [Compound I-32]
23 | 1 to 100 | 1 to 100 | 1 to 100 | Cc1cccnc1[C@H]1CCC[C@@H](c2ncccc2C)N1CCNC1CN(C(=O)c2ccc(-c3cc4c(-c5cccc(NC(=O)c6ccc(C(C)C)cc6)c5C)ncnc4[nH]3)cc2)C1 [Compound I-35]
24 | 1 to 100 | 100 to 1000 | 1 to 100 | Cc1cc(-c2ncnc3[nH]c(C(=O)NCCCN4[C@@H](c5ncccc5C)CCC[C@H]4c4ncccc4C)cc23)ccc1CNC(=O)c1ccc(C(C)C)cc1 [Compound I-38]
25 | 1 to 100 | > 2500 | 1 to 100 | Cc1cc(-c2ncnc3[nH]c(C(=O)NCCCN4[C@@H](c5ncccc5C)CCC[C@H]4c4ncccc4C)cc23)ccc1CNC(=O)c1ccc(C(F)(F)F)cc1 [Compound I-40]
26 | 1 to 100 | > 2500 | 1 to 100 | COC1CN(C(=O)NCc2ccc(-c3ccnc(Nc4cnn(CCN5[C@@H](c6ncccc6C)CCC[C@H]5c5ncccc5C)c4)n3)cc2C)C1 [Compound I-41]
27 | 1 to 100 | 100 to 1000 | 1 to 100 | Cc1cc(-c2ccnc(Nc3cnn(CCN4[C@@H](c5ncccc5C)CCC[C@H]4c4ncccc4C)c3)n2)ccc1CNC(=O)N1CC(OC(C)(C)C)C1 [Compound I-42]
